# From paper PMC8351955, “Targeting Mycobacterium tuberculosis response to environmental cues for the development of effective antitubercular drugs” (PLoS Biology, 2021)
# Like-named read-outs stand apart in the source and are kept apart here.
# Experiments:
# [1] = Mouse liver microsomal stability; assay type: in vitro ADME; details: mouse liver microsomes; read-out: half-life (t1/2) in mouse liver microsomes
# Protocol: (§1) Assays examining mouse and human liver microsomal stability, kinetic aqueous solubility, mouse and human plasma protein binding and stability, and human cytochrome P450 inhibition characteristics of the compounds were run by BioDuro (San Diego, CA), using standard protocols as previously described [37]. hERG inhibition assays were also performed by BioDuro.
# [2] = Pharmacokinetic assay, single oral dose in CD-1 mice; assay type: in vivo; details: female, mouse, plasma; CD-1 mice, single 5 mg/kg po dose; read-out: plasma AUC0–5h
# Protocol: Blood samples were collected in K2EDTA-coated tubes predose, 0.5, 1, 3, and 5 hours post-dose, placed on ice, and centrifuged to recover plasma. The recovered plasma was kept at −80°C as needed prior to analysis, which was performed as previously described. In brief, a Sciex Applied Biosystems Qtrap 4000 triple-quadrupole mass spectrometer coupled to an Agilent 1260 HPLC system was used for HPLC coupled to tandem mass spectrometry (LC–MS/MS) quantitative analysis of the samples, with chromatography attained using an Agilent Zorbax SB-C8 column (2.1 × 30 mm; particle size, 3.5 μm) and a reverse-phase gradient elution. The aqueous mobile phase consisted of Milli-Q deionized water with 0.1% formic acid (A), while the organic mobile phase was 0.1% formic acid in acetonitrile (B). The gradient setup was as follows: 5% to 90% B over 2 minutes, 1 minute at 90% B, then an immediate drop to 5% B and an additional 1 minute at 5% B. Quantification of molecules was carried out via multiple reaction monitoring of parent/daughter transitions in electrospray positive ionization mode, and sample analyses accepted if quality control and standard samples had concentrations within 20% of the nominal concentration. Preparation of compounds for generation of standard curves and quality control spiking solutions were performed as previously described. Data were processed using Analyst software (Version 1.6.2; Applied Biosystems Sciex, Framingham, MA).
# [3] = test system: CDC1551(rv2390c′::GFP) reporter Mtb strain; details: pH 7
# [4] = test system: WT Mtb (Erdman) in primary murine BMDMs; test: Primary murine bone marrow-derived macrophage infection, CFU; assay type: cell-based, Mycobacterium tuberculosis; details: 10 μM; for CFU/ml in BMDMs, average: Fig 1I
# Protocol: C57BL/6J wild-type mice (Jackson Laboratories) were used for extraction of BMDMs. Cells were harvested and expanded in DMEM containing 10% FBS, 15% L-cell conditioned media, 2 mM L-glutamine, 1 mM sodium pyruvate, and penicillin/streptomycin as needed in a 37°C incubator in a 5% CO2 atmosphere. […] Macrophages were lysed with water containing 0.01% sodium dodecyl sulfate and a dilution series of the samples plated on 7H10 agar for CFU determination.
# [5] = test system: Mtb growth in J774 murine macrophage-like cells; test: microbe, parasite or virus in culture; assay type: cell-based, Mycobacterium tuberculosis; details: for NPI (Mtb growth in J774 cells), average: Fig 1F
# [6] = test system: CDC1551(rv1405c′::GFP) reporter Mtb strain; test: microbe, parasite or virus in culture; assay type: cell-based, Mycobacterium tuberculosis; details: for NPA - rv1405c'::GFP, average: Fig 1D
# [7] = test system: CDC1551(rv2390c′::GFP) reporter Mtb strain; test: microbe, parasite or virus in culture; details: Mycobacterium tuberculosis, 216 h
# [8] = Kinetic aqueous solubility; assay type: physicochemical; details: pH 7.4 phosphate buffered saline; read-out: kinetic aqueous solubility (S)
# Protocol: as §1
# [9] = test system: Mtb growth in J774 macrophage-like cells; test: J774 infection in 96-well plates, mKO fluorescence 6 days post-infection; assay type: cell-based, Mycobacterium tuberculosis; details: 6 days post-infection
# Protocol: For J774 infection in 96-well plates, 1.8 × 10^5 J774 cells were seeded per well in 180 μl of J774 infection media 1 day prior to infection. On the day of the assay, log-phase Mtb constitutively expressing mKO were pelleted and resuspended in 1 ml basal uptake buffer, passed 6× through a tuberculin syringe with a 25 G × 5/8″ needle, then resuspended in J774 infection media to a final OD600 = 0.2. Media was removed from 96-well plate containing the J774 cells, with 140 μl of fresh J774 infection media added back to each well. A volume of 40 μl of the Mtb suspension at OD600 = 0.2 was added to each well, followed by addition of appropriate concentration of compound or DMSO in a 20-μl final volume in J774 infection media (compound final concentration 10 μM, rifampicin final concentration 5 μM, DMSO final concentration 0.1%/well). Bacterial mKO fluorescence was read immediately after infection using a Biotek Synergy Neo2 microplate reader (bottom read monochromator, excitation 543/10 nm, emission 565/10 nm), and again 6 days post-infection. Plates were kept in humidified ziplock bags in a 37°C, 5% CO2 incubator. mKO fluorescence in DMSO-treated control samples were defined as 100% growth, and fluorescence observed in treatment conditions calculated as a percentage from that set value.
# [10] = test system: CDC1551(rv2390c′::GFP) reporter Mtb strain, response to high [Cl−]; test: microbe, parasite or virus in culture; assay type: cell-based, Mycobacterium tuberculosis
structure (smiles),measurement,setting,value
"O=C(c1cnc2ccccn12)N1CCCC(CCc2cccc(C(F)(F)F)c2)C1 (stereo not shown) [C5, FC(F)(F)C1=CC=CC(CCC2CCCN(C2)C(=O)C2=CN=C3C=CC=CN23)=C1]",half-life,[1],4.98 min
same,AUC(0-t),[2],42 ng·h/mL
same,Ability to increase rv2390c′::GFP reporter signal in high [Cl−],[3],increased rv2390c′::GFP reporter signal
same,Effect on bacterial load / Mtb growth in primary murine BMDMs,"[4]; 8-day infection time course, vs DMSO",significant decrease in bacterial load
same,"CFU/ml in BMDMs, average",[4]; day 2,152000 CFU/ml
same,"CFU/ml in BMDMs, average",[4]; day 4,191000 CFU/ml
same,"CFU/ml in BMDMs, average",[4]; day 6,264500 CFU/ml
same,"CFU/ml in BMDMs, average",[4]; day 8,318000 CFU/ml
same,"NPI (Mtb growth in J774 cells), average","[5]; 0.078125 µM, 5 µM rifampicin = 100% inhibition",-6.175%
same,"NPI (Mtb growth in J774 cells), average",[5]; 0.15625 µM,0.5445%
same,"NPI (Mtb growth in J774 cells), average",[5]; 0.3125 µM,-0.235%
same,"NPI (Mtb growth in J774 cells), average",[5]; 0.625 µM,9.79%
same,"NPI (Mtb growth in J774 cells), average",[5]; 1.25 µM,32.35%
same,"NPI (Mtb growth in J774 cells), average",[5]; 2.5 µM,39.55%
same,"NPI (Mtb growth in J774 cells), average",[5]; 5 µM,48.4%
same,"NPI (Mtb growth in J774 cells), average",[5]; 10 µM,50.85%
same,"NPI (Mtb growth in J774 cells), average",[5]; 20 µM,55%
same,inhibition at 10 µM,"[5]; Mycobacterium tuberculosis, J774, 144 h, read-out: J774 tertiary assay % inhibition compared to Rif at 10 µM compound",50.9 ± 3.2%
same,inhibition at 20 µM,"[5]; Mycobacterium tuberculosis, J774, 144 h, read-out: J774 tertiary assay % inhibition compared to Rif at 20 µM compound",55 ± 5.8%
same,"NPA - rv1405c'::GFP, average",[6]; 0.0390625 µM,91.05%
same,"NPA - rv1405c'::GFP, average",[6]; 0.078125 µM,91.6%
same,"NPA - rv1405c'::GFP, average",[6]; 0.15625 µM,98.45%
same,"NPA - rv1405c'::GFP, average",[6]; 0.3125 µM,118%
same,"NPA - rv1405c'::GFP, average",[6]; 0.625 µM,125%
same,"NPA - rv1405c'::GFP, average",[6]; 1.25 µM,130%
same,"NPA - rv1405c'::GFP, average",[6]; 2.5 µM,114.5%
same,"NPA - rv1405c'::GFP, average",[6]; 5 µM,132.5%
same,"NPA - rv1405c'::GFP, average",[6]; 20 µM,145.5%
same,activity at 10 µM,"[6]; Mycobacterium tuberculosis, read-out: rv1405c'::GFP secondary assay NPA% at 10 µM compound",135 ± 14.8%
same,activity at 20 µM,"[6]; Mycobacterium tuberculosis, read-out: rv1405c'::GFP secondary assay NPA% at 20 µM compound",147 ± 7%
same,fold induction at 10 µM,"[7]; pH 7, read-out: Fold induction of rv2390c′::GFP reporter, average",6.34
same,fold induction at 10 µM,"[7]; read-out: Fold induction of rv2390c′::GFP reporter, average",5.92
same,solubility kinetic,[8],6.67 µM
same,"% growth of Mtb in J774 cells, average","[9]; 10 μM compound, DMSO = 100%, Fig 1H",37.9568%
same,Inhibition of Mtb growth in J774 cells,[9]; 10 μM,Mtb growth inhibition
same,"NPA - rv2390c'::GFP, average","[10]; 0.0390625 µM, Fig 1C",99.0333%
same,"NPA - rv2390c'::GFP, average","[10]; 0.078125 µM, Fig 1C",96.3333%
same,"NPA - rv2390c'::GFP, average","[10]; 0.15625 µM, Fig 1C",99.1%
same,"NPA - rv2390c'::GFP, average","[10]; 0.3125 µM, Fig 1C",113.667%
same,"NPA - rv2390c'::GFP, average","[10]; 0.625 µM, Fig 1C",116.667%
same,"NPA - rv2390c'::GFP, average","[10]; 1.25 µM, Fig 1C",131.667%
same,"NPA - rv2390c'::GFP, average","[10]; 2.5 µM, Fig 1C",132.333%
same,"NPA - rv2390c'::GFP, average","[10]; 5 µM, Fig 1C",137%
same,"NPA - rv2390c'::GFP, average","[10]; 10 µM, Fig 1C",131.333%
same,"NPA - rv2390c'::GFP, average","[10]; 20 µM, Fig 1C",142.333%
same,activity at 10 µM,"[10]; Mycobacterium tuberculosis, 144 h, pH 6.4, […], DMSO positive control = 100%, read-out: Primary screen rv2390c'::GFP NPA%",182%
same,activity at 10 µM,"[10]; Mycobacterium tuberculosis, 144 h, 10 µM, pH 6.4, 250 mM NaCl, 6 days, read-out: rv2390c'::GFP validation assay NPA% at 10 µM compound",131 ± 9.8%
same,activity at 20 µM,"[10]; Mycobacterium tuberculosis, 144 h, 20 µM, pH 6.4, 250 mM NaCl, 6 days, read-out: rv2390c'::GFP validation assay NPA% at 20 µM compound",142 ± 4.2%
same,AC50,"[10]; Mycobacterium tuberculosis, 144 h, pH 6.4, 250 mM NaCl, 6 days, Fig 1C, read-out: AC50 (activatory concentration, 50%), rv2390c′::GFP",500 nM
